In publication PMC7667029, “A Targeted Computational Screen of the SWEETLEAD Database Reveals FDA-Approved Compounds with Anti-Dengue Viral Activity” (mBio, 2020):
“Also recorded” adds a separate entry of the source.

What was measured:
DENV2 = experiment: DENV2-infected AGB6 mouse model (splenic titer, survival); type: in vivo, AGB6 mice; details: AGB6 mice, 15 mg/kg vandetanib twice daily, 15 mg/kg; for Splenic viral titer: 4 days postinfection; for Survival of infected mice: oral
[1] = system: DENV-2 luciferase-expressing replicon; experiment: Replicon luciferase assay in Huh7 cells; type: cell-based, dengue virus; details: 3 μM vandetanib, Huh7, up to 52 h posttransfection
Description: (§1) FIG 5 Vandetanib and spautin-1 inhibit dengue maturation and egress in a VPS34-independent manner. […] Cells were pretreated for 1 h, infected for 1 h at an MOI of 0.5 PFU/cell, and posttreated for an additional 23 h. N = 4, one-way ANOVA with Dunnett’s multiple-comparison test. ns, not significant (P > 0.05); **, P < 0.01; ****, P < 0.0001. (C) Huh7 cells transfected with a luciferase-expressing RNA replicon were treated with 3 μM vandetanib (orange) or 1% DMSO vehicle control (black) for 1 h prior to transfection and up to 52 h posttransfection. Luciferase intensity was quantified as a measure of viral protein abundance. Luciferase intensity was shown as relative light units (RLU). The use of an RNA replicon that is directly transfected into cells reflects only translation and RNA replication steps of viral infection, not viral packaging or cell exit. N = 4, two-way ANOVA with Sikak’s multiple-comparison test. […] (D) VPS34 was not required for spautin-1 or vandetanib anti-dengue activity. […]
A dengue replicon derived from the dengue virus strain 16681 expressing Renilla luciferase and dengue nonstructural proteins has been previously established ([7], [64]). […] Transfected cells were harvested and analyzed using the Renilla luciferase assay system (Promega BioSystems). Luciferase intensity was measured with a GloMax luminometer (10-s signal integration; Promega BioSystems).

dengue virus [2] = experiment: Antiviral activity in VPS34 knockout Huh7 cells; type: cell-based; details: 5 μM compound, MOI 0.5, 24 hpi
Description: as §1, with “activity. Wild-type and VPS34 knockout Huh7 cells were treated with 5 μM spautin-1, 5 μM vandetanib, or DMSO. Cells were pretreated, infected at an MOI of 0.5, and posttreated as described above for panels A and B. At 24 hpi, cellular supernatant was collected and titered by plaque assay. N ≥ 3. One-way ANOVA with Dunnett’s multiple-comparison test; *, P < 0.05; **, P < 0.01; ***, P < 0.001; ****, P < 0.0001.” for “activity.”

dengue virus [3] = experiment: Initial screening of hit compounds for anti-dengue activity in tissue culture cells (Table S1); type: cell-based; details: viral titer relative to vehicle, tissue culture cell lines (BHK-21 48 hpi, Fig. S1; Huh7, Fig. 2C, 3C, 4C)
[4] = ref PubChem database, cited from earlier work
BHK-21 and Huh7 cells = experiment: Cell viability by WST assay in uninfected cells (Table S1); type: cell-based; details: cell viability relative to vehicle at these doses
Description: Supplementary file : TABLE S1 Summary of hits for lead compounds ARDP0006 and ST-148 screened for anti-dengue activity in tissue culture cells. Hit compounds were tested for anti-dengue activity and cell toxicity in tissue culture cell lines. Antiviral activity is summarized as follows: −, not antiviral, with titer greater than 50% of vehicle; +, weakly antiviral, with titer between 20 and 50% of vehicle; ++, moderately antiviral, with titer between 5 and 20% of vehicle; +++, highly antiviral, with titer less than 5% of vehicle. Toxicity at these doses is represented as follows: −, nontoxic, with cell viability greater than 80% of vehicle; +, mild toxicity, with cell viability between 60 and 80% of vehicle; +++, high toxicity, with cell viability less than 60% of vehicle. Data summarized here are depicted graphically in Fig. S1 and Fig. 2C, 3C, and [4]C. […]
Supplementary file : FIG S1 Initial screening of eliminated hit compounds for anti-dengue activity in tissue culture cells. […] Cell viability in uninfected cells in the presence of compounds for 48 h was measured by WST assay (gray). […]
Mock-infected wells were used to determine cell viability in the presence of chemical compounds compared to 1% DMSO vehicle control. Cell viability was determined using the WST-1 kit (Abcam) per the manufacturer’s instructions. […]

For `COc1cc2c(Nc3ccc(Br)cc3F)ncnc2cc1OCC1CCN(C)CC1` [Vandetanib, vandetanib], which Splenic viral titer (DENV2) is on record?
Its Splenic viral titer is “did not affect splenic titers”.

What about the Splenic viral titer (DENV2; listed as vandetanib) of the same compound?
The Splenic viral titer was “did not significantly impact splenic viral titer”.

What about the “Survival of infected mice” value (DENV2) of the same compound?
Its value is “extend survival”.

What about the “Survival of infected mice” value (DENV2; listed as vandetanib) of the same compound?
The value was “significantly extended survival”.

What about the “Luciferase production of replicon” value [1] of the same compound?
The value was “no effect on luciferase production; also recorded: no significant differences”.

What about the “Antiviral activity in VPS34 knockout cells” value (dengue virus [2]) of the same compound?
Its value is “retained significant antiviral activity; also recorded: retained their ability to limit dengue virus egress”.

What about the Antiviral (dengue virus [3]) of the same compound?
The Antiviral was “++ (moderately antiviral, with titer between 5 and 20% of vehicle)”.

What about the LD50 ([4]; Oral, single dose) of the same compound?
Its LD50 is over 1000 mg/kg.

And the “Acute toxicity in words (Table S2)” value ([4]; healthy mice)?
Its value is “only mildly toxic”.

What about the Toxicity (BHK-21 and Huh7 cells) of the same compound?
Its Toxicity is “− (nontoxic, with cell viability greater than 80% of vehicle)”.
